Reference: ChEMBL document CHEMBL3817778, “Small molecules targeting Mcl-1: the search for a silver bullet in cancer therapy” (Medchemcomm, 2016)

Tests used:
[1] = molecular target: T1, Induced myeloid leukemia cell differentiation protein Mcl-1 (Homo sapiens, UniProt Q07820); experiment: Inhibition of fluorescein-labeled Bid BH3 peptide (79 to 99 residues) binding to His-tagged MCL1 (171 to 327 residues) (unknown origin) expressed in Escherichia coli Bl21(DE3) cells incubated for 3 hrs by fluorescence polarization assay
[2] = molecular target: T2, Apoptosis regulator Bcl-2 (Homo sapiens, UniProt P10415); experiment: Inhibition of FITC-labeled Bim BH3 peptide binding to GST-tagged BCL2 (unknown origin) preincubated for 2 mins followed by FITC-labeled Bim BH3 peptide addition measured after 10 mins by fluorescence polarization assay
[3] = molecular target: T1, Induced myeloid leukemia cell differentiation protein Mcl-1; experiment: Inhibition of FITC-labeled Bid BH3 peptide binding to human GST-tagged MCL1 lacking C-terminal transmembrane domain expressed in Escherichia coli XL-1 Blue cells preincubated for 10 mins followed by FITC-labeled Bid BH3 peptide addition measured after 20 mins by fluorescence polarization assay
[4] = molecular target: T2, Apoptosis regulator Bcl-2; experiment: Inhibition of FITC-labeled Bid BH3 peptide binding to human GST-tagged BCL2 lacking C-terminal transmembrane domain expressed in Escherichia coli XL-1 Blue cells preincubated for 10 mins followed by FITC-labeled Bid BH3 peptide addition measured after 20 mins by fluorescence polarization assay
MEF [5] = experiment: Induction of apoptosis in MEF assessed as dead cells at 10 uM after 24 hrs by Annexin V/propidium iodide staining based method relative to control; assay type: functional, Mus musculus
MEF [6] = experiment: Induction of apoptosis in […] double knock out MEF assessed as dead cells at 10 uM after 24 hrs by Annexin V/propidium iodide staining based method relative to control; assay type: functional, Mus musculus
[7] = molecular target: T2, Apoptosis regulator Bcl-2; experiment: Inhibition of FAM-labeled Bid BH3 peptide binding to recombinant human N-terminal GST-tagged BCL2 (1 to 34/ 92 to 207 residues) fused with human Bcl-XL expressed in Escherichia coli BL21(DE3) cells preincubated for 30 mins followed by FAM-labeled Bid BH3 peptide addition measured after 20 mins by fluorescence polarization assay
[8] = Inhibition of FAM-labeled Bid BH3 peptide binding to recombinant N-terminal His8-tagged human MCL1 (209 to 327 residues)/mouse MCL1 (152 to189 residues) expressed in Escherichia coli BL21(DE3) cells preincubated for 30 mins followed by FAM-labeled Bid BH3 peptide addition measured after 20 mins by fluorescence polarization assay
Bcl-2-like protein 1 = Bcl-2-like protein 1 (Homo sapiens, UniProt Q07817); experiment: Inhibition of FAM-labeled Bim BH3 peptide binding to recombinant human N-terminal GST-tagged Bcl-XL (1 to 212 residues) expressed in Escherichia coli BL21(DE3) cells preincubated for 30 mins followed by FAM-labeled Bim BH3 peptide addition measured after 20 mins by fluorescence polarization assay
[9] = molecular target: T1, Induced myeloid leukemia cell differentiation protein Mcl-1; experiment: Binding affinity to MCL1 (unknown origin) incubated for 30 mins by TR-FRET assay
[10] = Inhibition of FITC-labeled Bid BH3 peptide binding to GST-tagged MCL1 harboring N-terminal and C-terminal point mutant (unknown origin) expressed in Escherichia coli Bl21(DE3) cells by fluorescence polarization assay; set-up: species or system Homo sapiens
[11] = molecular target: T1, Induced myeloid leukemia cell differentiation protein Mcl-1; experiment: Inhibition of biotinylated Bim BH3 peptide binding to GST-tagged MCL1 (unknown origin) preincubated for 15 mins followed by biotinylated Bim BH3 peptide addition measured after 2 hrs by ELISA
[12] = molecular target: T1, Induced myeloid leukemia cell differentiation protein Mcl-1; experiment: Inhibition of 5-FAM-labeled Bid BH3 peptide binding to MCL1 (unknown origin) by fluorescence polarization assay
[13] = molecular target: T1, Induced myeloid leukemia cell differentiation protein Mcl-1; experiment: Inhibition of 5-FAM-labeled Bid BH3 peptide binding to MCL1 (unknown origin) at 50 uM by fluorescence polarization assay relative to control
[14] = molecular target: T2, Apoptosis regulator Bcl-2; experiment: Inhibition of FAM-labeled Bid BH3 peptide binding to human recombinant BCL2 by fluorescence polarization assay relative to control
[15] = molecular target: T1, Induced myeloid leukemia cell differentiation protein Mcl-1; experiment: Inhibition of FAM-labeled Bid BH3 peptide binding to human recombinant MCL1 by fluorescence polarization assay relative to control
[16] = molecular target: Induced myeloid leukemia cell differentiation protein Mcl-1 homolog (Mus musculus, UniProt P97287); experiment: Inhibition of biotinylated Bim BH3 peptide binding to recombinant GST-tagged mouse MCL1 with N-terminal truncation of 151 residues and C-terminal truncation of 23 residues expressed in Escherichia coli BL21(DE3) cells preincubated for 1 hr followed by biotinylated Bim BH3 peptide addition measured after 1 hr by ELISA
Induced myeloid leukemia cell differentiation protein Mcl-1 homolog, sequence (P97287 whole entry, the tested form may be a part): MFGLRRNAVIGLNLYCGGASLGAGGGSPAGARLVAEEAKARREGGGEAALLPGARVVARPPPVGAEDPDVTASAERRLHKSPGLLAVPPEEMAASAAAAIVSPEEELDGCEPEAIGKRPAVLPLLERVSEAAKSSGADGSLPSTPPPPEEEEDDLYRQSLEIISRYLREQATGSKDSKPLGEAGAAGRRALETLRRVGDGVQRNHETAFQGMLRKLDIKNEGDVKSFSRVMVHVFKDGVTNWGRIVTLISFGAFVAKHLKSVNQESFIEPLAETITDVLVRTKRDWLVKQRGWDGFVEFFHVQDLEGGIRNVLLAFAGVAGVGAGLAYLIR

T1 sequence (Q07820 whole entry, the tested form may be a part): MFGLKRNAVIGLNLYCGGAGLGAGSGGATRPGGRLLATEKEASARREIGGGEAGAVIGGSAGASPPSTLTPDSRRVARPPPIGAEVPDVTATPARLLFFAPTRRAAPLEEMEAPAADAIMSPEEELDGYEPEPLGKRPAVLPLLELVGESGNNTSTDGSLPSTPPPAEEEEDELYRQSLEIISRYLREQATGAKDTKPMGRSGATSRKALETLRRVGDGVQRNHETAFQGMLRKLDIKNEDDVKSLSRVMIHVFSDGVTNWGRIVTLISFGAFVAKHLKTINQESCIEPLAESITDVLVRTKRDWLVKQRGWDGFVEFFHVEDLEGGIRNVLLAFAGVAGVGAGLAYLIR
T2 sequence (P10415 whole entry, the tested form may be a part): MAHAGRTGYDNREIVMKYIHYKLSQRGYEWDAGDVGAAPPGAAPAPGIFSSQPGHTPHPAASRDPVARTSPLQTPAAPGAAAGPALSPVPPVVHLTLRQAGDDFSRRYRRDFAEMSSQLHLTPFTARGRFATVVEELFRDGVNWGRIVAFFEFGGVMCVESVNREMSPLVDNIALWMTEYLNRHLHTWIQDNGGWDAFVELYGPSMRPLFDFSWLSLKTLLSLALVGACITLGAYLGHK
Bcl-2-like protein 1, sequence (Q07817 whole entry, the tested form may be a part): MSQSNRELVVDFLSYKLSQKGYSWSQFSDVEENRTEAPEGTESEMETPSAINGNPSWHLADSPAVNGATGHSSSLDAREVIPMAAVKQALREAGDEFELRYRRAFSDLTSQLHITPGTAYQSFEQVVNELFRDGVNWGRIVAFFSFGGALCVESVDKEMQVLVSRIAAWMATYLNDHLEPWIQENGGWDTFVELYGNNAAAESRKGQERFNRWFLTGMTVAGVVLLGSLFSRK

SMILES: O=C(O)CSc1cc(NS(=O)(=O)c2ccc(Oc3ccc(F)cc3)cc2)c2ccccc2c1O
- IC50 [1]: 0.17 µM

SMILES: O=C(O)CSc1cc(NS(=O)(=O)c2ccc(-c3ccc(F)cc3F)cc2)c2ccccc2c1O
- IC50 [1]: 0.17 µM

SMILES: Cc1cc2c(C(C)C)c(O)c(O)cc2c(O)c1-c1c(C)cc2c(C(C)C)c(O)c(O)cc2c1O [APOGOSSYPOL]
- Ki [2]: 2.8 µM

SMILES: COC1=CC(c2cc3ccccc3[nH]2)=N/C1=C\c1[nH]c(C)cc1C [OBATOCLAX]
- IC50 [3]: 2.9 µM
- IC50 [4]: 1.11 µM

SMILES: O=C(O)CSc1cc(NS(=O)(=O)c2ccc(Br)cc2)c2ccccc2c1O
- Activity (MEF [5]): 60%
- Activity (MEF [6]): 16%
- Ki [1]: 1.87 µM

SMILES: CCOC(=O)C1=C(C)N=c2s/c(=C\c3cn(Cc4ccc(-c5ccccc5)cc4)c4ccccc34)c(=O)n2C1c1ccccc1 (stereo not given)
- Ki [7]: 0.53 µM
- Ki [8]: 0.2 µM
- Ki (Bcl-2-like protein 1): 0.017 µM

SMILES: CC1(C)CCC(CN2CCN(c3ccc(C(=O)NS(=O)(=O)c4ccc(NCC5CCOCC5)c([N+](=O)[O-])c4)c(Oc4cnc5[nH]ccc5c4)c3)CC2)=C(c2ccc(Cl)cc2)C1 [VENETOCLAX]
- Ki [9]: > 0.444 µM

SMILES: Cc1cs/c(=N\C2CCCCC2)n1/N=C/c1ccc(O)c(O)c1O
- IC50 [10]: 4.78 µM

SMILES: O=C1c2ccc(OS(=O)(=O)C(F)(F)F)cc2Oc2c(Cl)cc(C(=O)c3ccccc3O)n2-c2c1[nH]c(Cl)c2Cl
- IC50 [11]: 1.4 µM

SMILES: O=C(Cc1cc(O)c(O)c(O)c1)NCc1ccc(C(=O)N2CCN(Cc3ccccc3-c3ccccc3)CC2)cc1
- Ki [12]: 0.18 µM
- inhibition [13]: 66%

SMILES: O=C(O)CSc1cc(NS(=O)(=O)c2ccc(-c3ccc(Cl)cc3)cc2)c2ccccc2c1O
- IC50 [1]: 0.17 µM

SMILES: CC(C)c1ccccc1Cc1cc(C(=O)Nc2ccc(S(=O)(=O)c3ccccc3C(C)(C)C)cc2)c(O)c(O)c1O
- Ki [14]: < 0.3 µM
- Ki [15]: < 0.3 µM

SMILES: O=C(c1ccccc1O)c1[nH]c(Cl)c(Cl)c1-n1c(C(=O)c2ccccc2O)cc(Cl)c1Cl
- IC50 [16]: 10 µM
